Reference: patent US12012637B2 (University of South Florida, priority 2017, dated 2024)

Legend:
LIN28B [1] = assay: Dual immunofluorescence staining of LIN28B and GLUT1 in IH sections from propranolol-treated patients; assay type: in vivo, human
Method: Paraffin embedded infantile hemangioma and placenta sections (10 μm) were immunostained with primary antibodies against LIN28B 40 ug/ml (Abcam Cat #ab71415, RRID:AB_2135050) and GLUT1 3.4 ug/ml (Abcam Cat #ab40084, RRID:AB_2190927) overnight at 4° C. Sections were washed 3 times in PBS and incubated with 4 ug/ml secondary antibody Alexa Fluor 488 (Life Technologies Cat #a21202, RRID:AB_141607) for GLUT1 and alexa fluor cy3 (Life Technologies Cat #a10520, RRID:AB_2534029) for LIN28B for 30 minutes at room temperature. The sections were then washed with PBS and mounted with ProLong Diamond Antifade Mountant with DAPI, (Invitogen). Confocal images were obtained using an Olympus FV 1200 instrument. Immunofluorescence intensities were measured using ImageJ software as described^33. Fluorescence intensities were normalized to background intensities of secondary antibody only controls.

LIN28B [2] = assay: Immunoblot of LIN28B in propranolol-treated iPSCs; assay type: cell-based, human; details: 50 μM, 72 h, vs vehicle control
Method: (§1) Briefly, freshly dissected IH tissues were digested in 0.2% collagenase A (Roche Diagnostics, Indianapolis, IN). […] HemSCs were maintained in EBM-2 SingleQuot media Supplemented with 20% FBS.
Immunoblot analyses were performed as previously described^34 using 24 ng/ml antibodies against GAPDH (Cell Signaling Technology Cat #2118L RRID:AB_561053), […] antibodies against LIN28B (Abcam Cat #ab71415 RRID:AB_2135050) followed by IRDye 680 donkey anti-rabbit IGG secondary antibodies (0.2 μg/ml, LI-COR, 926-68073 RRID: AB_10954442). Immunoblots were imaged using the Odyssey Infrared Imaging System (LI-COR) and quantified using Image Studio software (LI-COR).

iPSCs [3] = assay: qRT-PCR analysis of miRNAs and genes in propranolol-treated iPSCs; assay type: cell-based, human; details: 50 μM
iPSCs [4] = assay: mRNA sequencing (RNAseq) and gene set enrichment analysis of propranolol-treated iPSCs; assay type: cell-based, human; details: 50 μM
Method: as §1
The cDNA library preparation was completed by second strand synthesis using SuperScript III, alkaline RNA hydrolysis, and PCR amplification for 10 cycles. mRNA libraries were prepared by utilizing the Illumina TruSeq Stranded mRNA LT protocol using 500 ng total RNA and NEB's Protoscript II reverse transcriptase for the first-strand cDNA synthesis according to the manufacturer's protocol. Individual RNAseq libraries were quality controlled on an Agilent TapeStation with a High Sensitivity D1000 ScreenTape. […] The libraries were sequenced on an Illumina NextSeq 500 sequencer 75-bp paired-end in mid-output mode in the Genomics Core Facility of The Rockefeller University.
The miRNA read annotation for sRNAseq experiments was performed as previously described^36, 37 using an slightly updated, manually curated miRNA reference based on previous work 38. […] The RNAseq data was aligned to the Human Genome Build 38 using the STAR aligner^40 (version 2.0.4j) allowing for two mismatches.
All data were tested for normality.

iPSCs [5] = assay: WST1 proliferation assay; assay type: cell-based, human; details: 50 μM, 72 hours
Method: iPSCs were grown in 6 well plates and split 1:10 at 3-day intervals. […] WST1 proliferation assays were performed as previously described^29.

iPSCs [6] = assay: Bright field morphology of propranolol-treated iPSCs; assay type: cell-based, human; details: 50 μM, 72 h, compared to control
mir-498(46) = details: previous work (ref. 7); cited from earlier work
hemangioma stem cells = details: cited from earlier work
iPSCs [7] = assay: sRNAseq analysis of miRNA cistrons in propranolol-treated iPSCs
[8] = iPSCs, 50 μM, 72 h, vs vehicle control

CC(C)NCC(O)COc1cccc2ccccc12 (centres unmarked) [Propranolol]
LIN28B and GLUT1 immunostaining (LIN28B [1]; propranolol-treated proliferative IH compared to untreated proliferative IH): markedly decreased | LIN28B to GLUT1 immunofluorescence signal intensity, increase in proliferative IH compared to propranolol treated IH (LIN28B [1]; untreated proliferative IH vs propranolol treated IH samples): ~2 fold | decrease in LIN28B protein levels (LIN28B [2]): 2.3 fold | SERPINE1 increased expression (qRT-PCR) (iPSCs [3]; 72 h): 8.4 fold | TWIST1 increased expression (qRT-PCR) (iPSCs [3]; 72 h): 5 fold | LIN28B mRNA levels (iPSCs [3]; 72 h, data not shown): no significant differences | increase in let-7a expression (qRT-PCR) (iPSCs [3]; 72 hr): > 1. 65 fold | miR-515-5p expression (qRT-PCR) (iPSCs [3]; 72 hr): significant reduction | miR-517a expression (qRT-PCR) (iPSCs [3]; 72 hr): significant reduction | miR-518C expression (qRT-PCR) (iPSCs [3]; 72 hr): significant reduction | miR-519d expression (qRT-PCR) (iPSCs [3]; 72 hr): significant reduction | SERPINE1 increase (RNAseq) (iPSCs [4]; 72 h): 12 fold | TWIST1 increase (RNAseq) (iPSCs [4]; 72 h): 2.9 fold | gene set analysis: TGF-β signaling pathway (iPSCs [4]; 72 h, FDR 0.06): upregulation | gene set analysis: adipogenesis pathway (iPSCs [4]; 72 h, FDR 0.09): upregulation | gene set analysis: E2F targets (iPSCs [4]; 72 h, FDR<0.25): downregulation | gene set analysis: G2M checkpoint (iPSCs [4]; 72 h, FDR<0.25): downregulation | gene set analysis: mitotic spindle pathway (iPSCs [4]; 72 h, FDR<0.25): downregulation | gene set enrichment: genes defining EMT (iPSCs [4]; 72 h vs control, FDR 0.00046): enrichment | decrease in cell proliferation (iPSCs [5]): 33% | EMT associated morphological changes (iPSCs [6]): more elongated cellular shape | levels of mir-498(46) in propranolol-treated IH tumors vs proliferative IH (mir-498(46)): significantly lower levels | adipogenesis in hemangioma stem cells (hemangioma stem cells): induce adipogenesis | downregulation of mir-498(46) (iPSCs [7]; [8]): 1.6 fold | increase in expression of cistron mir-98(13) (iPSCs [7]; [8]): 3.2 fold | Normalized frequency, cistron mir-10a(1) (iPSCs [7]; propranolol-treated iPSCs): 0.0168% | Normalized frequency, cistron mir-10b(1) (iPSCs [7]; propranolol-treated iPSCs): 0.0176% | Normalized frequency, cistron mir-21(1) (iPSCs [7]; propranolol-treated iPSCs): 10.5844% | Normalized frequency, cistron mir-33b(1) (iPSCs [7]; propranolol-treated iPSCs): 0.002% | Normalized frequency, cistron mir-98(13) (iPSCs [7]; propranolol-treated iPSCs): 0.2313% | Normalized frequency, cistron mir-188(8) (iPSCs [7]; propranolol-treated iPSCs): 0.1459% | Normalized frequency, cistron mir-488(1) (iPSCs [7]; propranolol-treated iPSCs): 0.0022% | Normalized frequency, cistron mir-498(46) (iPSCs [7]; propranolol-treated iPSCs): 0.4075% | Normalized frequency, cistron mir-1226(1) (iPSCs [7]; propranolol-treated iPSCs): 0% | Normalized frequency, cistron mir-3155(1) (iPSCs [7]; propranolol-treated iPSCs): 0.0014%
